Molecules are shown by their SMILES. Where two headings read alike, the source gives them in different places.

For experiment [1], the target named is T1, Recombinant human NK3 (hNK3) receptor (Homo sapiens, UniProt P29371).
T1 construct: expressed in transfected cells
T1 sequence (P29371 1-465): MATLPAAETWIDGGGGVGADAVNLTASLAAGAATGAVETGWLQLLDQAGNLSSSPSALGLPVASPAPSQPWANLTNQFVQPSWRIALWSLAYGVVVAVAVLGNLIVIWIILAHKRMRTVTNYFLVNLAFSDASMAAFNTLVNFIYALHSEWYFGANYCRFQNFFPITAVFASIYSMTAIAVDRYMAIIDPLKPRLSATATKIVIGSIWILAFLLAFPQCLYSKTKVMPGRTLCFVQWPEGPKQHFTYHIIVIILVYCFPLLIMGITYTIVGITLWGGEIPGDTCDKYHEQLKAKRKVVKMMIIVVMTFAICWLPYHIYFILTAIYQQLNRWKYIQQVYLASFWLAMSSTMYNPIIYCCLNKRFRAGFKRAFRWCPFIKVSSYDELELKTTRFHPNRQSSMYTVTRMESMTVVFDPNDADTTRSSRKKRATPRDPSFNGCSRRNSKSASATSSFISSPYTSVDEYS
Description: NK3 receptor binding, [3H]SR142801 displacement, membrane preparations. Put shortly:
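Buffer: Tris-HCl 50 mM pH 7.4, BSA 0.1%, MnCl2 4 mM, phosphoramidon 1 μM. ~2.5 μg membrane/well, 90 min RT. NSB with SB222200 (10 μM). Vacuum filtration over 0.3% PEI-treated GF/C, cold Tris/BSA washes, scintillation count; duplicates, ≥2 experiments.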

Experiment [2] concerns the target human NK1 receptor (Homo sapiens, UniProt P25103). Put plainly: NK1 receptor binding, [3H]substance P displacement, CHO cell membranes.
Where [3] appears, read: second value of the cell NK1/NK3, read-out: pKi NK3 (converted).
Where [4] appears, read: first value of the cell NK1/NK3, read-out: pKi NK1 (converted).
Setting [5] is: second value of the cell pKi NK1/NK3, hNK3 receptor, [3H]SR142801.
The mark [6] stands for this setting: first value of the cell pKi NK1/NK3, human NK1 receptor, [3H]substance P.

Sequence of human NK1 receptor (P25103 whole entry): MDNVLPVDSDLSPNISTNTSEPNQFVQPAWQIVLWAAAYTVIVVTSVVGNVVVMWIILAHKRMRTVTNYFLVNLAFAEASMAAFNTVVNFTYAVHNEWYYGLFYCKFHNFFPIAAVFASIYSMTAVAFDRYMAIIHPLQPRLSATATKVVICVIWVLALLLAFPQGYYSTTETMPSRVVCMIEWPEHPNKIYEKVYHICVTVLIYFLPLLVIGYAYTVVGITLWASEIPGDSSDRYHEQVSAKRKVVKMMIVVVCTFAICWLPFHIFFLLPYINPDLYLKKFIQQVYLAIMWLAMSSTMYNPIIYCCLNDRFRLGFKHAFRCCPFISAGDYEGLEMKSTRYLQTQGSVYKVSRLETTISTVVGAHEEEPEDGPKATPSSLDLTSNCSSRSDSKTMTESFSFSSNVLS

Turning to `COc1ccccc1-c1cc(N2C[C@H](O)C[C@H]2CO)ncc1N(C)C(=O)C(C)(C)c1cc(C(F)(F)F)cc(C(F)(F)F)c1` [Example 214, (2S,4R)-2-(3,5-Bis-trifluoromethyl-phenyl)-N-[6-(4-hydroxy-2-hydroxymethyl-pyrrolidin-1-yl)-4-(2-methoxy-phenyl)-pyridin-3-yl]-N-methyl-isobutyramide], the Ki was 2.75 nM in experiment [1] (setting [3]) and 1.02 nM in experiment [2] (setting [4]).

For the compound `CCCN(CCO)c1cc(-c2ccccc2Cl)c(N(C)C(=O)C(C)(C)c2cc(C(F)(F)F)cc(C(F)(F)F)c2)cn1` [Example 56, 2-(3,5-Bis-trifluoromethyl-phenyl)-N-{4-(2-chloro-phenyl)-6-[(2-hydroxy-ethyl)-propyl-amino]-pyridin-3-yl}-N-methyl-isobutyramide], the Ki is 5.25 nM in experiment [1] (setting [5]) and 4.57 nM in experiment [2] (setting [6]).

Regarding `CCC(O)CNc1cc(-c2ccccc2Cl)c(N(C)C(=O)C(C)(C)c2cc(C(F)(F)F)cc(C(F)(F)F)c2)cn1` (stereo not drawn) [Example 76, 2-(3,5-Bis-trifluoromethyl-phenyl)-N-[4-(2-chloro-phenyl)-6-(2-hydroxy-butylamino)-pyridin-3-yl]-N-methyl-isobutyramide], the values for the Ki in experiment [1] (setting [5]) and in experiment [2] (setting [6]) were 10.7 nM and 1.58 nM, respectively.

Consider `CN(C(=O)C(C)(C)c1cc(C(F)(F)F)cc(C(F)(F)F)c1)c1cnc(N2C[C@H](O)C[C@H]2CO)cc1-c1ccccc1` [Example 201, (2S,4R)-2-(3,5-Bis-trifluoromethyl-phenyl)-N-[6-(4-hydroxy-2-hydroxymethyl-pyrrolidin-1-yl)-4-phenyl-pyridin-3-yl]-N-methyl-isobutyramide], for which the values for the Ki in experiment [1] (setting [5]) and in experiment [2] (setting [6]) were 8.71 nM and 1.48 nM, respectively.

On to `CC(=O)N[C@@H]1CCN(c2cc(-c3ccc(F)cc3C)c(N(C)C(=O)C(C)(C)c3cc(C(F)(F)F)cc(C(F)(F)F)c3)cn2)C1` [Example 100, (R)-N-[6-(3-Acetylamino-pyrrolidin-1-yl)-4-(4-fluoro-2-methyl-phenyl)-pyridin-3-yl]-2-(3,5-bis-trifluoromethyl-phenyl)-N-methyl-isobutyramide], for which the Ki is 20 nM in experiment [1] (setting [5]) and 1.82 nM in experiment [2] (setting [6]).

`CN(C(=O)C(C)(C)c1cc(C(F)(F)F)cc(C(F)(F)F)c1)c1cnc(N2C[C@H](O)C[C@H]2CO)cc1-c1ccc(F)cc1` [Example 202, (2S,4R)-2-(3,5-Bis-trifluoromethyl-phenyl)-N-[4-(4-fluoro-phenyl)-6-(4-hydroxy-2-hydroxymethyl-pyrrolidin-1-yl)-pyridin-3-yl]-N-methyl-isobutyramide]: the results for the Ki in experiment [1] (setting [5]) and in experiment [2] (setting [6]) were 7.41 nM and 1.2 nM, respectively.

For the compound `CN(C(=O)C(C)(C)c1cc(C(F)(F)F)cc(C(F)(F)F)c1)c1cnc(N2CCC(N)CC2)cc1-c1ccccc1Cl` [Example 112, N-[4-Amino-4′-(2-chloro-phenyl)-3,4,5,6-tetrahydro-2H-[1,2′]bipyridinyl-5′-yl]-2-(3,5-bis-trifluoromethyl-phenyl)-N-methyl-isobutyramide], the Ki in experiment [1] (setting [5]) was 5.5 nM; in experiment [2] (setting [6]) it was 0.562 nM.

On to `Cc1ccccc1-c1cc(N2CCOC[C@H]2CO)ncc1N(C)C(=O)C(C)(C)c1cc(C(F)(F)F)cc(C(F)(F)F)c1` [Example 175], for which the figures for the Ki in experiment [1] (setting [5]) and in experiment [2] (setting [6]) were 2.14 nM and 1.62 nM, respectively.

Consider `Cc1ncccc1-c1cc(N2CC[C@H](O)[C@H]2CO)ncc1N(C)C(=O)C(C)(C)c1cc(C(F)(F)F)cc(C(F)(F)F)c1` [Example 278, (2R,3S)-2-(3,5-Bis-trifluoromethyl-phenyl)-N-[6′-(3-hydroxy-2-hydroxymethyl-pyrrolidin-1-yl)-2-methyl-[3,4′]bipyridinyl-3′-yl]-N-methyl-isobutyramide], for which the results for the Ki in experiment [1] (setting [3]) and in experiment [2] (setting [4]) were 2.69 nM and 0.813 nM, respectively.

Regarding `CN(C(=O)C(C)(C)c1cc(C(F)(F)F)cc(C(F)(F)F)c1)c1cnc(N2C[C@H](O)C[C@@H](O)C2)cc1-c1ccccc1Cl` [Example 180, (3R,5R)-2-(3,5-Bis-trifluoromethyl-phenyl)-N-[4′-(2-chloro-phenyl)-3,5-dihydroxy-3,4,5,6-tetrahydro-2H-[1,2′]bipyridinyl-5′-yl]-N-methyl-isobutyramide], the results for the Ki in experiment [1] (setting [5]) and in experiment [2] (setting [6]) were 3.24 nM and 1.62 nM, respectively.

Turning to `COc1ccccc1-c1cc(N2CCC[C@H]2CO)ncc1N(C)C(=O)C(C)(C)c1cc(C(F)(F)F)cc(C(F)(F)F)c1` [Example 280, (S)-2-(3,5-Bis-trifluoromethyl-phenyl)-N-[6-(2-hydroxymethyl-pyrrolidin-1-yl)-4-(2-methoxy-phenyl)-pyridin-3-yl]-N-methyl-isobutyramide], the Ki was 1.86 nM in experiment [1] (setting [3]) and 1.82 nM in experiment [2] (setting [4]).

For `Cc1cc(F)ccc1-c1cc(N2CCS(=O)(=O)CC2CO)ncc1N(C)C(=O)C(C)(C)c1cc(C(F)(F)F)cc(C(F)(F)F)c1` (racemic) [Example 177, (RS)-2-(3,5-Bis-trifluoromethyl-phenyl)-N-[4-(4-fluoro-2-methyl-phenyl)-6-(3-hydroxymethyl-1,1-dioxo-1λ^6-thiomorpholin-4-yl)-pyridin-3-yl]-N-methyl-isobutyramide], the Ki was 2.63 nM in experiment [1] (setting [5]) and 1.2 nM in experiment [2] (setting [6]).

As to `CN(C(=O)C(C)(C)c1cc(Cl)cc(OC(F)F)c1)c1cnc(N2C[C@H](O)C[C@H]2CO)cc1-c1ccccc1Cl` [Example 35, (2S,4R)-2-(3-Chloro-5-difluoromethoxy-phenyl)-N-[4-(2-chloro-phenyl)-6-(4-hydroxy-2-hydroxymethyl-pyrrolidin-1-yl)-pyridin-3-yl]-N-methyl-isobutyramide], the Ki in experiment [1] (setting [5]) is 0.55 nM; in experiment [2] (setting [6]), 1.95 nM.

With `Cc1cc(F)ccc1-c1cc(N[C@H]2CC[C@H](O)CC2)ncc1N(C)C(=O)C(C)(C)c1cc(C(F)(F)F)cc(C(F)(F)F)c1` [Example 92, trans-2-(3,5-Bis-trifluoromethyl-phenyl)-N-[4-(4-fluoro-2-methyl-phenyl)-6-(4-hydroxy-cyclohexylamino)-pyridin-3-yl]-N-methyl-isobutyramide], the Ki is 21.4 nM in experiment [1] (setting [5]) and 1.02 nM in experiment [2] (setting [6]).

Regarding `Cc1cc(F)ccc1-c1cc(N2CC=C[C@H]2CO)ncc1N(C)C(=O)C(C)(C)c1cc(C(F)(F)F)cc(C(F)(F)F)c1` [Example 157, (S)-2-(3,5-Bis-trifluoromethyl-phenyl)-N-[4-(4-fluoro-2-methyl-phenyl)-6-(2-hydroxymethyl-2,5-dihydro-pyrrol-1-yl)-pyridin-3-yl]-N-methyl-isobutyramide], the Ki in experiment [1] (setting [5]) is 1.58 nM; in experiment [2] (setting [6]) it was 2.51 nM.

On to `Cc1cc(F)ccc1-c1cc(N2CCC[C@H]2CO)ncc1N(C)C(=O)C(C)(C)c1cc(F)cc(C(F)(F)F)c1` [Example 24, (S)-N-[4-(4-Fluoro-2-methyl-phenyl)-6-(2-hydroxymethyl-pyrrolidin-1-yl)-pyridin-3-yl]-2-(3-fluoro-5-trifluoromethyl-phenyl)-N-methyl-isobutyramide], for which the figures for the Ki in experiment [1] (setting [5]) and in experiment [2] (setting [6]) were 0.891 nM and 1.32 nM, respectively.

Consider `CN(C(=O)C(C)(C)c1cc(C(F)(F)F)cc(C(F)(F)F)c1)c1cnc(N2C[C@H](O)C[C@H]2CO)cc1-c1cccc(Cl)c1` [Example 206, (2S,4R)-2-(3,5-Bis-trifluoromethyl-phenyl)-N-[4-(3-chloro-phenyl)-6-(4-hydroxy-2-hydroxymethyl-pyrrolidin-1-yl)-pyridin-3-yl]-N-methyl-isobutyramide], for which the Ki in experiment [1] (setting [5]) is 15.8 nM; in experiment [2] (setting [6]), 1.86 nM.

In the case of `CN(C(=O)C(C)(C)c1cc(C(F)(F)F)cc(C(F)(F)F)c1)c1cnc(N2CCCC[C@@H]2CO)cc1-c1ccccc1Cl` [Example 160, (R)-2-(3,5-Bis-trifluoromethyl-phenyl)-N-[4′-(2-chloro-phenyl)-2-hydroxymethyl-3,4,5,6-tetrahydro-2H-[1,2′]bipyridinyl-5′-yl]-N-methyl-isobutyramide], the Ki in experiment [1] (setting [5]) was 30.2 nM; in experiment [2] (setting [6]) it was 2.04 nM.

Turning to `CN(C(=O)C(C)(C)c1cc(C(F)(F)F)cc(C(F)(F)F)c1)c1cnc(NCC(O)CO)cc1-c1ccccc1Cl` (racemic) [Example 78, (RS)-2-(3,5-Bis-trifluoromethyl-phenyl)-N-[4-(2-chloro-phenyl)-6-(2,3-dihydroxy-propylamino)-pyridin-3-yl]-N-methyl-isobutyramide], the figures for the Ki in experiment [1] (setting [5]) and in experiment [2] (setting [6]) were 6.17 nM and 2.82 nM, respectively.

In the case of `Cc1cc(F)ccc1-c1cc(N2CC(O)C2)ncc1N(C)C(=O)C(C)(C)c1cc(C(F)(F)F)cc(C(F)(F)F)c1` [Example 162, 2-(3,5-Bis-trifluoromethyl-phenyl)-N-[4-(4-fluoro-2-methyl-phenyl)-6-(3-hydroxy-azetidin-1-yl)-pyridin-3-yl]-N-methyl-isobutyramide], the Ki in experiment [1] (setting [5]) is 18.6 nM; in experiment [2] (setting [6]), 2.09 nM.

`Cc1cc(F)ccc1-c1cc(NC(CO)CO)ncc1N(C)C(=O)C(C)(C)c1cc(C(F)(F)F)cc(C(F)(F)F)c1` [Example 142, 2-(3,5-bis-trifluoromethyl-phenyl)-N-[4-(4-fluoro-2-methyl-phenyl)-6-(2-hydroxy-1-hydroxymethyl-ethylamino)-pyridin-3-yl]-N-methyl-isobutyramide]: the results for the Ki in experiment [1] (setting [5]) and in experiment [2] (setting [6]) were 2.57 nM and 1.29 nM, respectively.

For the origin of these results see US8404708B2, “Dual NK1/NK3 receptor antagonists” (Hoffmann-La Roche Inc., priority 2004, dated 2013).
